In ChEMBL document CHEMBL4699594, “Antiplasmodial Alkaloids from the Australian Bryozoan Amathia lamourouxi” (J Nat Prod, 2020):
Calls of active or inactive are those of the source. The rule behind the calls is not given here.

Legend:
[1] = Selectivity index, ratio of IC50 for cytotoxicity against human HEK293 cells to IC50 for antiplasmodial activity against chloroquine-sensitive Plasmodium falciparum 3D7 ring stage; assay type: toxicity, cell-based; conditions: read-out: Ratio IC50
HEK293 [2] = test: Cytotoxicity against human HEK293 cells assessed as reduction in cell viability at 0.1 uM after 72 hrs by resazurin dye based assay; conditions: hek293, 72 h
Plasmodium falciparum [3] = test: Antiplasmodial activity against chloroquine-sensitive Plasmodium falciparum 3D7 ring stage incubated for 72 hrs by DAPI-staining based imaging analysis; assay type: functional, organism-based; conditions: 3D7, 72 h
[4] = Selectivity index, ratio of IC50 for cytotoxicity against human HEK293 cells to IC50 for antiplasmodial activity against chloroquine-resistant Plasmodium falciparum Dd2 ring stage; assay type: toxicity, cell-based; conditions: read-out: Ratio IC50
HEK293 [5] = test: Cytotoxicity against human HEK293 cells assessed as reduction in cell viability after 72 hrs by resazurin dye based assay; conditions: HEK293, 72 h
Plasmodium falciparum [6] = test: Antiplasmodial activity against chloroquine-resistant Plasmodium falciparum Dd2 ring stage incubated for 72 hrs by DAPI-staining based imaging analysis; assay type: functional, organism-based; conditions: Dd2, 72 h
HEK293 [7] = test: Cytotoxicity against human HEK293 cells assessed as reduction in cell viability at 40 uM after 72 hrs by resazurin dye based assay; conditions: hek293, 72 h
HEK293 [8] = test: Cytotoxicity against human HEK293 cells assessed as reduction in cell viability at 4 uM after 72 hrs by resazurin dye based assay relative to control; conditions: hek293, 72 h
Plasmodium falciparum [9] = test: Antiplasmodial activity against chloroquine-sensitive Plasmodium falciparum 3D7 ring stage at 40 uM incubated for 72 hrs by DAPI-staining based imaging analysis; assay type: functional, organism-based
Plasmodium falciparum [10] = test: Antiplasmodial activity against chloroquine-resistant Plasmodium falciparum Dd2 ring stage at 40 uM incubated for 72 hrs by DAPI-staining based imaging analysis; assay type: functional, organism-based

Compound	selectivity ratio [1]	Activity (HEK293 [2])	IC50 (Plasmodium falciparum [3]) [nM]	selectivity ratio [4]	IC50 (HEK293 [5]) [nM]	IC50 (Plasmodium falciparum [6]) [nM]	Activity (HEK293 [7])	Activity (HEK293 [8]) [%]	Activity (Plasmodium falciparum [9])	Activity (Plasmodium falciparum [10])
C[C@H]1[C@@H](O)O[C@@H]2O[C@@]3(C)CC[C@H]4[C@H](C)CC[C@@H]1[C@@]24OO3 [ARTENIMOL]	62	Non-Toxic	2	57	–	–	–	–	–	–
CN[C@@H](CCN(C)CCc1cc(OC)c(Br)cc1Br)C(=O)N(C)CCCN(C)CCc1cc(OC)c(Br)cc1Br	20	–	570	13	11000	850	–	–	–	–
CN[C@@H](CCN(C)CCc1cc(OC)c(Br)cc1Br)C(=O)NCCCN(C)CCc1cc(OC)c(Br)cc1Br	25	–	1600	21	–	1900	Non-Toxic	–	–	–
CNCCc1cc(OC)c(Br)cc1Br.O=C(O)C(F)(F)F	4	–	11000	–	–	–	Non-Toxic	–	–	–
COc1cc(CCN(C)CCCN(C)C(=O)[C@H](CCN(C)CCc2cc(OC)c(Br)cc2Br)N(C)C)c(Br)cc1Br	66	–	610	53	–	750	Non-Toxic	–	–	–
COc1cc(CCN(C)CCCN(C)C)c(Br)cc1Br	10	–	1700	–	17000	–	–	–	–	–
COc1ccc(C[C@H](N)C(=O)N[C@H]2[C@@H](O)[C@H](n3cnc4c(N(C)C)ncnc43)O[C@@H]2CO)cc1 [PUROMYCIN]	353	–	–	585	810	68	–	–	–	–
CCN(CC)CCCC(C)Nc1ccnc2cc(Cl)ccc12 (stereo not drawn) [CHLOROQUINE]	–	–	–	–	–	–	–	67	–	–
Cn1c(Br)c(C=O)c2cc(Br)ccc21	–	–	–	–	–	–	Non-Toxic	–	inactive	inactive
